Measured values reported in ChEMBL document CHEMBL3885861, “Open TG-GATES”.

Organism: Rattus norvegicus
Test: Open TG-GATES - Regimen: Daily Repeat
Format: toxicity, organism-based, Sprague-Dawley
Parameters: regimen Daily Repeat, gender Male, age 6 weeks
Conditions: in vivo, po, 600 mg/kg, route gavage, dose level High; for APTT / Bas / Eos / Fbg / Hb / Ht / Lym / MCH / MCHC / MCV / Mono / Neu / PT / Plat / RBC / Ret / WBC: tissue Blood
[1] = 72 h, tissue Kidney, time 3 day
[2] = 72 h, tissue Plasma, time 3 day

C[C@](N)(Cc1ccc(O)c(O)c1)C(=O)O [METHYLDOPA]
TERMINAL_BW (72 h, time 3 day): 188.1 g | APTT (72 h, time 3 day): 17.3 s | Bas (72 h, time 3 day): 0% | Eos (72 h, time 3 day): 1.2% | Fbg (72 h, time 3 day): 240 mg/dL | Hb (72 h, time 3 day): 14.2 g/dL | Ht (72 h, time 3 day): 41.8% | Lym (72 h, time 3 day): 83.2% | MCH (72 h, time 3 day): 21.4 pg | MCHC (72 h, time 3 day): 34% | MCV (72 h, time 3 day): 62.9 fL | Mono (72 h, time 3 day): 2.4% | Neu (72 h, time 3 day): 12.6% | PT (72 h, time 3 day): 12.8 s | Plat (72 h, time 3 day): 108 x10_4/uL | RBC (72 h, time 3 day): 665.2 x10_4/ul | Ret (72 h, time 3 day): 4.2% | WBC (72 h, time 3 day): 54.3 x10_2/uL | KIDNEY_L [1]: 0.9 g | KIDNEY_R [1]: 0.9 g | KIDNEY_TOTAL [1]: 1.7 g | LIVER (72 h, tissue Liver, time 3 day): 8.1 g | A/G [2]: 0.8 | ALP [2]: 1746 IU/L | ALT [2]: 54.4 IU/L | AST [2]: 74 IU/L | BUN [2]: 18.2 mg/dL | CRE [2]: 0.2 mg/dL | Ca [2]: 10.9 mg/dL | Cl [2]: 106.6 meq/L | DBIL [2]: 0.01 mg/dL | GLC [2]: 167.2 mg/dL | IP [2]: 7.8 mg/dL | K [2]: 4.1 meq/L | LDH [2]: 72.2 IU/L | Na [2]: 146.2 meq/L | PL [2]: 153 mg/dL | RALB [2]: 2.6 g/dL | TBIL [2]: 0.054 mg/dL | TC [2]: 95.6 mg/dL | TG [2]: 37.2 mg/dL | TP [2]: 5.5 g/dL | gamma-GTP [2]: 1 IU/L | TERMINAL_BW ([…], time 7 day): 207.4 g | TERMINAL_BW ([…], time 14 day): 241.7 g | TERMINAL_BW ([…], time 28 day): 321.4 g | APTT ([…], time 7 day): 16.1 s | Bas ([…], time 7 day): 0% | Eos ([…], time 7 day): 1.2% | Fbg ([…], time 7 day): 259 mg/dL | Hb ([…], time 7 day): 14.4 g/dL | Ht ([…], time 7 day): 42.1% | Lym ([…], time 7 day): 81.6% | MCH ([…], time 7 day): 20.5 pg | MCHC ([…], time 7 day): 34.2% | MCV ([…], time 7 day): 60 fL | Mono ([…], time 7 day): 2.8% | Neu ([…], time 7 day): 14.4% | PT ([…], time 7 day): 12.2 s | Plat ([…], time 7 day): 106.1 x10_4/uL | RBC ([…], time 7 day): 702 x10_4/ul | Ret ([…], time 7 day): 3.6% | WBC ([…], time 7 day): 67.6 x10_2/uL | APTT ([…], time 14 day): 16.5 s | Bas ([…], time 14 day): 0% | Eos ([…], time 14 day): 0.8% | Fbg ([…], time 14 day): 277 mg/dL | Hb ([…], time 14 day): 14.2 g/dL | Ht ([…], time 14 day): 40.9% | Lym ([…], time 14 day): 83.8% | MCH ([…], time 14 day): 21.1 pg | MCHC ([…], time 14 day): 34.7% | MCV ([…], time 14 day): 60.8 fL | Mono ([…], time 14 day): 1.8% | Neu ([…], time 14 day): 13% | PT ([…], time 14 day): 14.2 s | Plat ([…], time 14 day): 111.5 x10_4/uL | RBC ([…], time 14 day): 673.2 x10_4/ul | Ret ([…], time 14 day): 4.6% | WBC ([…], time 14 day): 86.9 x10_2/uL | APTT ([…], time 28 day): 16.8 s | Bas ([…], time 28 day): 0% | Eos ([…], time 28 day): 1.2% | Fbg ([…], time 28 day): 300.8 mg/dL | Hb ([…], time 28 day): 14.9 g/dL | Ht ([…], time 28 day): 43.2%
